One assay deals with T cells. Nature of the assay: TBM and BBM mediated T cell proliferation (Example 20). The class given is cell-based, human. The settings on record: in the presence of OCI-LY-19 and Toledo cells. As to the method:
Briefly, OCI-LY-19, Karpas422, and Toledo target cells stably expressing firefly luciferase were plated in a 96 well plate in T Cell Media (TCM) (RPMI-1640, ThermoFisher Scientific, Cat #11875-085), 10% FBS (Seradigm, Cat #1500-500), 1% L-Glutamine (Thermo Fisher Scientific, Cat #25830-081), 1% Non Essential Amino Acids (Thermo Fisher Scientific, Cat #11140-050), 1% Pen/Strep (Thermo Fisher Scientific, Cat #15070063), 1% HEPES (Thermo Fisher Scientific, Cat #15630080), Sodium Pyruvate (Thermo Fisher Scientific, Cat #11360-070), 0.1% Beta-mercaptoethanol (Thermo Fisher Scientific, Cat #21985-023)]. PBMCs previously isolated and cryopreserved from 2 Leukopak donors were thawed and Pan T cells were isolated (as described earlier). Isolated T cells were labelled with 5 μM Cell Trace Violet (CTV) (Thermo Fisher Scientific, Cat #C34557) following the manufacturer's protocol and were co-cultured with target cells at an E:T ratio of 1:3. A dilution series of CD3med TSP1, CD3hi TSP1, CD3hi BSP1, CD3hi TSP1C, and blinatumomab ranging from 2.5 nM-0.0006 nM was added to cells and the plates were incubated in a 5% CO2, 37° C. incubator for 96 hrs. […]

A further assay deals with Karpas422 target cells. Nature of the assay: Re-challenge RTCC assay, Karpas 422. In kind it is cell-based, human. The settings on record: last re-challenge. How it is done:
OCI-LY-19 and Karpas422 target cells stably expressing firefly luciferase were plated in a Costar 6 well plate in T Cell Media (TCM). PBMCs previously isolated and cryopreserved from 2 Leukopak donors were thawed and Pan T cells were isolated (as described earlier). […] The plates were incubated for 4 days for OCI-LY-19 and 5 days for Karpas 422 cells. At the end of incubation, the killing of target cells was determined using the luminescence signal. The absolute T cell counts from each antibody treated condition was also determined. For the next round of rechallenge, it was ensured that the killing of target cells was equivalent across various antibody conditions. […] Additionally, a dose titration RTCC at a E:T of 1:1 and a concentration range of 2 nM-0.000001 nM was set-up using T cells from the different antibody treated conditions with a 4 day incubation used for each cell line. The killing of target cells was determined using the luminescence signal to generate dose response curves. At the end of the challenge, the above process was repeated once more for Karpas 422 and twice more for OCI-LY-19 cells.

The values below come from patent publication US12221481B2, “CD19 binding molecules and uses thereof” (Novartis AG, priority 2019, dated 2025).

On to “blinatumomab: bispecific T cell engager, or BiTE, that binds to both CD19 and CD3 but lacks an Fc domain [reference compound]”, for which the “T cell proliferation, potency compared between constructs” value in the assay on T cells is on record as “most potent T cell proliferation”. In addition, the maximum lysis result in the assay with Karpas422 target cells was “higher maximum lysis than CD3hi TSP1”.
